Laboratory results as given in US20260285868A1, “IMIDAZOTRIAZINE DERIVATIVES AS IL-17 MODULATORS” (UCB BIOPHARMA SRL, priority 2023, published 2026).

Each compound was assayed against T1, IL-17A (Homo sapiens, UniProt Q16552) (assay: Inhibition of IL-17A induced IL-6 release from dermal fibroblast cell line (HDF cell line assay)). Settings: HDF cells stimulated with IL-17A 50 pM + TNFα 25 pM; IL-6 measured by HTRF.
T1 sequence (Q16552 24-155): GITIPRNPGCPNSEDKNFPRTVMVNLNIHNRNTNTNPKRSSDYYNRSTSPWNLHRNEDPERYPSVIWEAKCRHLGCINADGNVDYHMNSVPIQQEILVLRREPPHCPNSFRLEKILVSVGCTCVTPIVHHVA
Type: cell-based
Excerpt: Inhibition of IL-17A Induced IL-6 Release from Dermal Fibroblast Cell Line
The purpose of this assay is to test the neutralising ability to IL-17 proteins, in a human primary cell system. Stimulation of normal human dermal fibroblasts (HDF) with IL-17 alone produces only a very weak signal but in combination with certain other cytokines, such as TNFα, a synergistic effect can be seen in the production of inflammatory cytokines, i.e. IL-6.
HDFs were stimulated with IL-17A (50 pM) in combination with TNF-α (25 pM). The resultant IL-6 response was then measured using a homogenous time-resolved FRET kit from Cisbio. The kit utilises two monoclonal antibodies, one labelled with Eu-Cryptate (Donor) and the second with d2 or XL665 (Acceptor). The intensity of the signal is proportional to the concentration of IL-6 present in the sample (Ratio is calculated by 665/620×104).
The ability of a compound to inhibit IL-17 induced IL-6 release from human dermal fibroblasts is measured in this assay.
HDF cells (Sigma #106-05n) were cultured in complete media (DMEM+10% FCS+2 mM L-glutamine) and maintained in a tissue culture flask using standard techniques. Cells were harvested from the tissue culture flask on the morning of the assay using TrypLE (Invitrogen #12605036). The TrypLE was neutralised using complete medium (45 mL) and the cells were centrifuged at 300×g for 3 minutes. The cells were re-suspended in complete media (5 mL) counted and adjusted to a concentration of 3.125×10^4 cells/mL before being added to the 384 well assay plate (Corning #3701) at 40 μL per well. The cells were left for a minimum of three hours, at 37° C./5% CO2, to adhere to the plate.
Compounds were serially diluted in DMSO before receiving an aqueous dilution into a 384 well dilution plate (Greiner #781281), where 5 μL from the titration plate was transferred to 45 μL of complete media and mixed to give a solution containing 10% DMSO.
Mixtures of TNFα and IL-17 cytokine were prepared in complete media to final concentrations of TNFα 25 pM/IL-17A 50 pM, then 30 μL of the solution was added to a 384 well reagent plate (Greiner #781281).
10 μL from the aqueous dilution plate was transferred to the reagent plate containing 30 μL of the diluted cytokines, to give a 2.5% DMSO solution. The compounds were incubated with the cytokine mixtures for 5 h at 37° C. […]
From the Cisbio IL-6 FRET kit (Cisbio #62IL6PEB) europium cryptate and Alexa 665 were diluted in reconstitution buffer and mixed 1:1, as per kit insert. […] The mixture was incubated at room temperature for 3 h with gentle shaking (<400 rpm) before being read on a Synergy Neo 2 plate reader (Excitation: 330 nm; Emission: 615/645 nm).

Row | IC50 | Compound
1 | 3.98 nM | [2H]C([2H])([2H])O[C@H]1CCN(C(=O)[C@@H]2CCC(F)(F)CO2)[C@H](c2cnn3cc(C(NC(=O)c4ccnn4C)C4CCC(F)(F)CC4)nc3n2)C1 (single isomer, unassigned) [Example 2, N—[(S)-(4,4-Difluorocyclohexyl)(3-{(2S,4S or 2R,4R)-1-[(2S)-5,5-difluorotetrahydro-pyran-2-carbonyl]-4-(trideuteriomethoxy)piperidin-2-yl}imidazo[1,2-bl[1,2,4]triazin-6-yl)methyl]-2-methylpyrazole-3-carboxamide]
2 | 39.8 nM | [2H]C([2H])([2H])O[C@H]1CCN(C(=O)[C@@H]2CCC(F)(F)CO2)[C@@H](c2cnn3cc([C@@H](NC(=O)c4ccnn4C)C4CCC(F)(F)CC4)nc3n2)C1 (single isomer, unassigned) [Example 1, N—[(S)-(4,4-Difluorocyclohexyl)(3-{(2R,4S or 2S,4R)-1-[(2S)-5,5-difluorotetrahydro-pyran-2-carbonyl]-4-(trideuteriomethoxy)piperidin-2-yl}imidazo[1,2-bl[1,2,4]triazin-6-yl)methyl]-2-methylpyrazole-3-carboxamide]
3 | 3.16 nM | CO[C@H]1CCN(C(=O)[C@@H]2CCC(F)(F)CO2)[C@H](c2cnn3cc(C(NC(=O)c4ccnn4C)C4CCC(F)(F)CC4)nc3n2)C1 (single isomer, unassigned) [Example 4, N—[(S)-(4,4-Difluorocyclohexyl)(3-{(2S,4S or 2R,4R)-1-[(2S)-5,5-difluorotetrahydro-pyran-2-carbonyl]-4-methoxypiperidin-2-yl}imidazo[1,2-bl[1,2,4]triazin-6-yl)methyl]-2-methylpyrazole-3-carboxamide]
4 | 39.8 nM | CO[C@H]1CCN(C(=O)[C@@H]2CCC(F)(F)CO2)[C@@H](c2cnn3cc([C@@H](NC(=O)c4ccnn4C)C4CCC(F)(F)CC4)nc3n2)C1 (single isomer, unassigned) [Example 3, N—[(S)-(4,4-Difluorocyclohexyl)(3-{(2R,4S or 2S,4R)-1-[(2S)-5,5-difluorotetrahydro-pyran-2-carbonyl]-4-methoxypiperidin-2-yl}imidazo[1,2-b][1,2,4]triazin-6-yl)methyl]-2-methylpyrazole-3-carboxamide]
